Data as given in patent publication US6359138B1, “4-hydroxy-piperidine derivatives” (Hoffmann-La Roche Inc., priority 1996, dated 2002).
Where a name gives a salt, the structure may show the parent alone. Marks after values point to notes of the source that are not given here.

Key:
[1] = target: T1, NR1C + NR2A NMDA receptor (Rattus norvegicus, UniProt P35439+Q00959); experiment: Electrophysiology on recombinant NMDA receptors, NR1C + NR2A in Xenopus oocytes; assay type: cell-based; details: 10 μM compound; Xenopus laevis oocytes, voltage clamp −80 mV, 2.7 μM Glu plus 0.9 μM Gly; mean of 4-6 oocytes
T1 construct: expressed in transfected cells; host or cells: Xenopus laevis oocytes (nuclear injection of pBC/CMV plasmids)
T1 sequence (Q00959 23-1464, other chains not shown): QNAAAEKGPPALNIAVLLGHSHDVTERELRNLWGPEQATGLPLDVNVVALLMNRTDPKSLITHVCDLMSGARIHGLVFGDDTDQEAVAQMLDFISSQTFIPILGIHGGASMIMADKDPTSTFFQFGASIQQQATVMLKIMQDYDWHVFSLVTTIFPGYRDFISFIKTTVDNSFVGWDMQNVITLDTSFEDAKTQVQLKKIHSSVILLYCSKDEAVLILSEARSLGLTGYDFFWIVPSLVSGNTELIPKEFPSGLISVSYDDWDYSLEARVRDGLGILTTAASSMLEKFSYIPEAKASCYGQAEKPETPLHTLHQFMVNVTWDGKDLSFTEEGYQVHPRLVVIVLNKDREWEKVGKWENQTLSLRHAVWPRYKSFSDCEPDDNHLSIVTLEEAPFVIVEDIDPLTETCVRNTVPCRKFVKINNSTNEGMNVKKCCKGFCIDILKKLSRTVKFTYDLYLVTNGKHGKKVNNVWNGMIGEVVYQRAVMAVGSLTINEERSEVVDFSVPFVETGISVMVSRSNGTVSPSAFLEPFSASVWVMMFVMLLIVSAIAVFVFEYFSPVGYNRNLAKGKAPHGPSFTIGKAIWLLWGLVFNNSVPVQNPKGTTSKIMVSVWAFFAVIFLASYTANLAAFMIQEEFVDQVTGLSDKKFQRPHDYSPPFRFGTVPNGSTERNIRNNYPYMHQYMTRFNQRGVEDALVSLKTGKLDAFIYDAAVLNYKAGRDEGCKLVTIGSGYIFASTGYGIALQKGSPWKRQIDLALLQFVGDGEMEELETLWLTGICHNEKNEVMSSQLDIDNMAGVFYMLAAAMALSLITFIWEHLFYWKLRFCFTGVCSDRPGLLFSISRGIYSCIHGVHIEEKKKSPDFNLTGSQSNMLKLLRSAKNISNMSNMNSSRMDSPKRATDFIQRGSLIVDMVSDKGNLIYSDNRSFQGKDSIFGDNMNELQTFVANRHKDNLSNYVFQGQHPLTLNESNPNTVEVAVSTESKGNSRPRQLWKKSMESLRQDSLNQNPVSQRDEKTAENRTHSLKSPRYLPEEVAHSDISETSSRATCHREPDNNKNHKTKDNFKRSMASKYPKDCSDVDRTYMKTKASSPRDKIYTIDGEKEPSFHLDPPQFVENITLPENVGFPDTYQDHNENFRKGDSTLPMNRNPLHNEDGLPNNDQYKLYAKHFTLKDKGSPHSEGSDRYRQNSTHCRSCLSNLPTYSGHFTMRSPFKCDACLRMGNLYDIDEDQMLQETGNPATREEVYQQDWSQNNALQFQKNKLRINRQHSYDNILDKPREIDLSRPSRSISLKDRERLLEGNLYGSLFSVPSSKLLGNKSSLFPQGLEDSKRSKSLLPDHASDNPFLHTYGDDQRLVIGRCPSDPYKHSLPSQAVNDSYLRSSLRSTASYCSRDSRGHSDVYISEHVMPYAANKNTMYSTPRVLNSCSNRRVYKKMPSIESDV
Excerpt: (§1) Electrophysiology on Recombinant NMDA Receptors
(§2) cDNA clones coding for the subunits NR1C and NR2A of the NMDA receptor (see Hollmann and Heinemann, 1994, Annu. Rev. Neurosci. 17:31 for nomenclature of NMDA receptor subunits) were isolated from a rat brain λgt11 cDNA library as published elsewhere (Sigel et al., 1994, J. Biol. Chem. 269:8204). The clone for the subunit NR2B of the rat brain NMDA receptor was obtained from S. Nakanishi (Kyoto, Japan). The cDNAs encoding rat NR1C, NR2A and NR2B were subcloned into the expression vector pBC/CMV (Bertocci et al., 1991, Proc. Natl. Acad. Sci. U.S.A. 88:1416), placing transcription of the cDNA under control of the human cytomegalovirus promoter. CsCl-purified expression plasmids were mixed in a 1:3 ratio of NR1C:NR2A or NR1C:NR2B in injection buffer (88 mM NaCl, 1 mM KCl, 15 mM HEPES, at pH 7.0). Oocytes of South African frogs (Xenopus laevis) were used for expressing either a combination of the NR1C and NR2A subunits or the NR1C and NR2B subunits. 12 to 120 pg of a 1:3 (NR1C:NR2B) mixture of the respective cDNA species were injected into the nucleus of every oocyte. On the following two days the ion current through the NMDA receptor channels was measured in voltage clamp experiments for the methods of cDNA expression in oocytes and voltage-clamping (see, e.g., Bertrand et al., 1991, Methods in Neurosciences 4:174). The membrane potential was clamped to −80 mV and the receptors were activated by applying a modified Ringer,s solution containing the NMDA-receptor agonists L-glutamate (Glu) and glycine (Gly). Different agonist concentrations were chosen for either subunit combination to account for the different agonist sensitivities of the two types of receptors (2.7 μM Glu plus 0.9 μM Gly for NR1C+NR2A and 1.3 μM Glu plus 0.07 μM Gly for NR1C+NR2B). The agonists were applied for 15 s intervals once every 2.5 min by rapid superfusion of the oocyte with agonist containing solution and the amplitude of the agonist-evoked current was measured immediately before the end of each application. After a series of initial control applications the antagonist to be tested was added to both, the basal Ringer,s and the agonist containing solution. The antagonist concentration applied to oocytes expressing the NR2A subunit was 10 μmol/l, whereas 0.1 μtmol/ were applied to the NR2B expressing oocytes. Four to six oocytes were tested for every compound and NMDA receptor subtype. Oocytes were exposed to the compounds for 5 to 30 min depending on the time needed for reaching an equilibrium block of the NMDA receptor current. For every oocyte the decrease of the current amplitude was expressed as a percentage of the control current measured before application of the compound. Figures in the table are arithmetic mean values of these percentage values.

[2] = target: T2, NR1C + NR2B NMDA receptor (Rattus norvegicus, UniProt P35439+Q00960); experiment: Electrophysiology on recombinant NMDA receptors, NR1C + NR2B in Xenopus oocytes; assay type: cell-based; details: 0.1 μM compound; Xenopus laevis oocytes, voltage clamp −80 mV, 1.3 μM Glu plus 0.07 μM Gly; mean of 4-6 oocytes
T2 construct: expressed in transfected cells; host or cells: Xenopus laevis oocytes (nuclear injection of pBC/CMV plasmids)
T2 sequence (Q00960 27-1482, other chains not shown): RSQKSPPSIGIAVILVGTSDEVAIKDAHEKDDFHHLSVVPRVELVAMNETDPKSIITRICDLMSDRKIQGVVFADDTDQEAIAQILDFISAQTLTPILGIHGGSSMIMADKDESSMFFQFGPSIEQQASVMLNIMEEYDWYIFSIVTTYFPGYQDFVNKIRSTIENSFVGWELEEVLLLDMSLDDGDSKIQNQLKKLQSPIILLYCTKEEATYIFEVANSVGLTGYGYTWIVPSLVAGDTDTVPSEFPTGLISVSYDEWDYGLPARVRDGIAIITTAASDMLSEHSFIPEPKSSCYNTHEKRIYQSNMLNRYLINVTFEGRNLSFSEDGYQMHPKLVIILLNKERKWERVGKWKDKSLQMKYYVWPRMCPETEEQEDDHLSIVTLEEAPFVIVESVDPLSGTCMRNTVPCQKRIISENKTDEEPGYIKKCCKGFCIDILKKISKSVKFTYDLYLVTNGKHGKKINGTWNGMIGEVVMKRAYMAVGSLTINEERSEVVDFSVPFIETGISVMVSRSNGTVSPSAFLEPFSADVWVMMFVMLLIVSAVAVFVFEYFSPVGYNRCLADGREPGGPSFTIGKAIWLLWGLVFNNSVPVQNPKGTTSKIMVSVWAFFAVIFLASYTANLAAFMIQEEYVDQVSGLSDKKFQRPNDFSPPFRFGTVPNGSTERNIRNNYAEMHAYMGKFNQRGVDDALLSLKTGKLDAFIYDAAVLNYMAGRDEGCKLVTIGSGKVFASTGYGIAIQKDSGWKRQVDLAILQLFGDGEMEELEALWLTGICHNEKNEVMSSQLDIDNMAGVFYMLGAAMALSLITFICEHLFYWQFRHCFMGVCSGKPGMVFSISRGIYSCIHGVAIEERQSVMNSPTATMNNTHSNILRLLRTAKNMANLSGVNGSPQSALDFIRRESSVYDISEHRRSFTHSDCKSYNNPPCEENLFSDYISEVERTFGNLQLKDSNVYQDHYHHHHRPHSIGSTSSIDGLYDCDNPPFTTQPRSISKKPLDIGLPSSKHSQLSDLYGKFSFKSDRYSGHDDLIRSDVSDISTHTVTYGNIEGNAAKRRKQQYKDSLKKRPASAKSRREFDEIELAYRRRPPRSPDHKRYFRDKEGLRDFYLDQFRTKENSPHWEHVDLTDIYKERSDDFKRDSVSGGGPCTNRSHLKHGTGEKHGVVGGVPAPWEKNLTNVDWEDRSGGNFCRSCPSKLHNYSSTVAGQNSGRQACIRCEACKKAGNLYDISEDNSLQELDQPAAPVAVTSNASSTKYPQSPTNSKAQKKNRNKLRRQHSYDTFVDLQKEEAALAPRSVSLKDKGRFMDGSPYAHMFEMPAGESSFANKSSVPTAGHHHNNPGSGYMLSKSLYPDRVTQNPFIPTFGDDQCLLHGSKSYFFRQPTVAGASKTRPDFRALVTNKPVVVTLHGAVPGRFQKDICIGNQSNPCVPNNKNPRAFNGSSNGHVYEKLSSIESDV
Excerpt: as §1
as §2, with “Figures in the table are arithmetic mean values of these percentage values.” left out

[3] = target: T3, NMDA receptor (3H-Ro 25-6981 binding, rat brain membranes) (Rattus norvegicus, UniProt P35439+Q00960); experiment: 3H-Ro 25-6981 binding; details: 5 nM 3H-Ro 25-6981, 2 hours at 4° C.
T3 construct: Membranes were prepared by homogenization of the whole brain minus cerebellum and medulla oblongata; from tissue; host or cells: rat whole brain minus cerebellum and medulla oblongata, membranes
T3 sequence (Q00960 27-1482, other chains not shown): as above
Procedure: 3H-Ro 25-6981 Binding (Ro 25-6981 is [R-(R*,S*)]-a-(4-Hydroxy-phenyl)-b-methyl-4-(phenyl-methyl)-1-piperidine Propanol)
Male Füillinsdorf albino rats weighing between 150-200 g were used. Membranes were prepared by homogenization of the whole brain minus cerebellum and medulla oblongata with a Polytron (10.000 rpm, 30 seconds), in 25 volumes of a cold Tris-HCl 50 mM, EDTA 10 mM, pH 7.1 buffer. The homogenate was centrifuged at 48.000 g for 10 minutes at 4° C. The pellet was resuspended using the Polytron in the same volume of buffer and the homogenate was incubated at 37° C. for 10 minutes. After centrifugation the pellet was homogenized in the same buffer and frozen at −80° C. for at least 16 hours but not more than 10 days. For the binding assay the homogenate was thawed at 37° C., centrifuged and the pellet was washed three times as above in a Tris-HCl 5 mM, pH 7.4 cold buffer. The final pellet was resuspended in the same buffer and used at a final concentration of 200 μg of protein/ml. 3H-Ro 25-6981 binding experiments were performed using a Tris-HCl 50 mM, pH 7.4 buffer. For displacement experiments 5 nM of 3H-Ro 25-6981 were used and non specific binding was measured using 10 μM of tetrahydroisoquinoline and usually it accounts for 10% of the total. The incubation time was 2 hours at 4° C. and the assay was stopped by filtration on Whatmann GF/B glass fiber filters (Unifilter-96, Packard, Zütrich, Switzerland). The filters were washed 5 times with cold buffer. The radioactivity on the filter was counted on a Packard Top-count microplate scintillation counter after addition of […] of microscint 40 (Canberra Packard S. A., Zürich, Switzerland).
The effects of compounds were measured using a minimum of 8 concentrations and repeated at least once. The pooled normalized values were analyzed using a non-linear regression calculation program which provide IC50 with their relative upper and lower 95% confidence limits (RS1, BBN, USA).

[4] = target: 3H-Prazosine binding (rat brain membranes); experiment: 3H-Prazosine binding; details: 0.2 nM 3H-Prazosine, 30 minutes at room temperature
Procedure: Male Füllinsdorf albino rats weighing between 150-200 g were used. Membranes were prepared by homogenization of the whole brain minus cerebellum and medulla oblongata with a Plytron (10.000 rpm, 30 seconds), in 25 volumes of a cold Tris-HCl 50 mM, EDTA 10 mM, pH 7.1 buffer. The homogenate was centrifuged at 48.000 g for 10 minutes at 4° C. The pellet was resuspended using the Polytron in the same volume of buffer and the homogenate was incubated at 37° C. for 10 minutes. After centrifugation the pellet was homogenized in the same buffer and frozen at −80° C. for at least 16 hours but not more than 10 days. For the binding assay the homogenate was thawed at 37° C., centrifuged and the pellet was washed three times as above in a Tris-HCl 5 mM, pH 7.4 cold buffer. The final pellet was resuspended in the same buffer and used at a final concentration of 200 μg of protein/ml.
3H-Prazosine binding experiments were performed using a Tris-HCl 50 mM, pH 7.4 buffer. For displacement experiments 0.2 nM of 3H-Prazosine were used and non specific binding was measured using 100 μM of Chlorpromazine. […] The radioactivity on the filter was counted on a Packard Top-count microplate scintillation counter after addition of […] of microscint 40 (Canberra Packard S. A., Zürich, Switzerland). The effects of compounds were measured using a minimum of 8 concentrations and repeated at least once. […]

Compound | Electrophysiology NR1C + NR2A % block by 10 μM [1] | melting point [°C] | further results
Cc1ccc(CC2(O)CCN(CC3Cc4cc(O)ccc4C3O)CC2)cc1 (stereo not drawn) [Example 16, (1RS,2RS) and (1RS, 2SR)-2-[4-Hydroxy-4-(4-methyl-benzyl)-piperidine-1-ylmethyl]-indan-1,5-diol Fumarate Salt] | 6% | – | –
Oc1ccc2c(c1)CC[C@H](CN1CCC(O)(Cc3ccccc3)CC1)[C@H]2O (racemic) [Example 29, (1RS,2RS)-2-(4-benzyl-4-hydroxy-piperidin-1-yl-methyl)-6-hydroxy-1,2,3,4-tetrahydro-naphthalen-1-ol] | – | 94 to 98 | –
Cc1ccc(CC2(O)CCN(C[C@@H]3Cc4cc(O)ccc4O3)CC2)cc1.Cl [Example 13, (S)-1-(5-Hydroxy-2,3-dihydro-benzofuran-2-ylmethyl)-4-(4-methyl-benzyl)-piperidin-4-ol hydrochloride] | 8% | – | Electrophysiology NR1C + NR2B % block by 0.1 μM [2]: 93%
Cc1ccc(CC2(O)CCN(CC3=Cc4ccc(O)cc4CC3)CC2)cc1 [Example 1, 1-(6-Hydroxy-3,4-dihydro-naphthalene-2-ylmethyl)-4-(4-methyl-benzyl)-piperidine-4-ol] | 65* % | – | Electrophysiology NR1C + NR2B % block by 0.1 μM [2]: 72%; IC50 [3]: 0.04 µM
Cc1ccc(CC2(O)CCN(Cc3cc4ccc(O)cc4o3)CC2)cc1.Cl | – | 214 | –
Cc1ccc(CC2(O)CCN(CC3Cc4ccc(O)cc4O3)CC2)cc1.Cl (racemic) | – | 203 to 205 | –
Cl.Oc1ccc2c(c1)C[C@@H](CN1CCC(O)(Cc3ccc(Cl)cc3)CC1)O2 [Example 14, (S)-1-(5-Hydroxy-2,3-dihydro-benzofuran-2-ylmethyl)-4-(4-chloro-benzyl)-piperidin-4-ol hydrochloride] | 9% | – | Electrophysiology NR1C + NR2B % block by 0.1 μM [2]: 90%
Cc1ccc(CC2(O)CCN(C[C@H]3CCc4cc(O)ccc4[C@@H]3O)CC2)cc1 (racemic) [Example 27, (1RS, 2RS)-1-(1,6-Dihydroxy-1,2,3,4-tetrahydro-naphthalen-2-ylmethyl)-4-(4-methyl-benzyl)-piperidin-4-ol fumarate salt] | – | – | IC50 [4]: 6 µM; IC50 [3]: 0.026 µM
CC(=O)Nc1ccc2c(c1)CCC(CN1CCC(O)(Cc3ccccc3)CC1)C2=O.Cl (racemic) | – | 123 to 126 | –
Cc1ccc(CC2(O)CCN(CC3Cc4ccc(O)cc4C3)CC2)cc1.Cl (racemic) | – | 88 to 90 | –
Cc1ccc(CC2(O)CCN(CC3Cc4cc(O)ccc4N3)CC2)cc1 (racemic) [Example 21, (RS)-2-[4-Hydroxy-4-(4-methyl-benzyl)-piperidin-1-ylmethyl]-2,3-dihydro-1H-indol-5-ol] | – | 90 to 94 | –
Cc1ccc(CC2(O)CCN(CC3=Cc4ccc(O)cc4C3)CC2)cc1 [Example 20, 1-(6-Hydroxy-1H-inden-2-ylmethyl)-4-(4-methyl-benzyl)-piperidin-4-ol] | – | 154 to 157 | –
CCc1ccc(CC2(O)CCN(CC3Cc4cc(O)ccc4O3)CC2)cc1.Cl (racemic) [Example 7, (RS)-4-(4-ethyl-benzyl)-1-(5-hydroxy-2,3-dihydro-benzofuran-2-ylmethyl)-piperidin-4-ol hydrochloride] | 12% | – | Electrophysiology NR1C + NR2B % block by 0.1 μM [2]: 89%
CS(=O)(=O)Nc1ccc2c(c1)CC(CN1CCC(O)(Cc3ccc(Cl)cc3)CC1)O2 (racemic) [Example 22, Hydrochloride] | – | – | IC50 [3]: 0.04 µM
